ChEMBL document CHEMBL1147065, “Identification of an in vivo inhibitor of Bacillus anthracis spore germination” (J Biol Chem, 2007)
Calls of active or inactive are those of the source. The calls are words filed in the database; no cut-off is given here.

Columns and labels:
Bacillus anthracis [1] = assay: Inhibition of inosine and alanine-induced germination of Bacillus anthracis Sterne spore pre-incubated for 15 mins; type: functional, organism-based
Bacillus anthracis [2] = assay: Inhibition of cytopathic effect in Bacillus anthracis Sterne infected mouse RAW264.7 macrophage at 1 uM to 2 uM after 6 hrs by propidium iodide exclusion assay; type: functional; set-up: scale not given: the % may be the effect or the level left
Bacillus anthracis [3] = assay: Inhibition of cytopathic effect in Bacillus anthracis Sterne infected mouse RAW264.7 macrophage assessed as lack of propidium iodide positive cells after 7 hrs; type: functional, organism-based
Bacillus anthracis [4] = assay: Inhibition of cytopathic effect in Bacillus anthracis Sterne infected mouse RAW264.7 macrophage after 6 hrs by propidium iodide exclusion assay; type: functional, organism-based

Row | SMILES | Ki (Bacillus anthracis [1]) | Activity (Bacillus anthracis [2]) | Activity (Bacillus anthracis [3]) | Activity (Bacillus anthracis [4])
1 | Nc1nc(=S)c2ncn([C@@H]3O[C@H](CO)[C@@H](O)[C@H]3O)c2[nH]1 [THIOGUANOSINE] | 98 µM | 88% | Active | 
2 | Nc1nc(N)c2ncn([C@@H]3O[C@H](CO)[C@@H](O)[C@H]3O)c2n1 | 68 µM |  |  | inactive
3 | CSc1ncnc2c1ncn2[C@@H]1O[C@H](CO)[C@@H](O)[C@H]1O | 31 µM |  |  | inactive
4 | COc1nc(N)nc2c1ncn2[C@@H]1O[C@H](CO)[C@@H](O)[C@H]1O | 34 µM |  |  | inactive
5 | OC[C@H]1O[C@@H](n2cnc3c(O)nc(O)nc32)[C@H](O)[C@@H]1O [XANTHOSINE] | 777 µM |  |  | inactive
6 | Nc1nc(Cl)c2ncn([C@@H]3O[C@H](CO)[C@@H](O)[C@H]3O)c2n1 | 87 µM |  |  | inactive
